Results on twelve molecules are retold here after ChEMBL document CHEMBL1139708, “Sesquiterpene lactones are potent and irreversible inhibitors of the antibacterial target enzyme MurA” (Bioorg Med Chem Lett, 2006).

Activity calls are given as the source filed them. The rule behind the calls is not given here. Some results are limits rather than exact numbers.

In experiment [1] the target is UDP-N-acetylglucosamine 1-carboxyvinyltransferase (Pseudomonas aeruginosa (strain ATCC 15692 / PAO1 / 1C / PRS 101 / LMG12228), UniProt Q9HVW7). As to the kind of experiment: Inhibition of Pseudomonas aeruginosa PAO1293 MurA in presence of UNAG.
Chain of UDP-N-acetylglucosamine 1-carboxyvinyltransferase (Pseudomonas aeruginosa (strain ATCC 15692 / PAO1 / 1C / PRS 101 / LMG12228), UniProt Q9HVW7) (Q9HVW7 whole entry): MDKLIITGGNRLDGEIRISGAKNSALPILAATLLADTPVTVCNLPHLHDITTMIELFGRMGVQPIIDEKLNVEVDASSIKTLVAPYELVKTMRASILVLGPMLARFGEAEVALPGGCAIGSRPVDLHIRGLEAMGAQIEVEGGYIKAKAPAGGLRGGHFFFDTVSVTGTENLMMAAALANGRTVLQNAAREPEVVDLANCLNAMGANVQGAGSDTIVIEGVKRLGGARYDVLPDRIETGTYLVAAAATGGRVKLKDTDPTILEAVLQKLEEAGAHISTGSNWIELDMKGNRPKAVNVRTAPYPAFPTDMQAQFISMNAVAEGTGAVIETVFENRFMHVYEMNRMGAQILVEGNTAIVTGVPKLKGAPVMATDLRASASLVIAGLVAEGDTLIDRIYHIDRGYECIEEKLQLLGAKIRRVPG
For experiment [2], the system named is UDP-N-acetylglucosamine 1-carboxyvinyltransferase (Escherichia coli K-12), P0A749 [C115D]. As to the kind of experiment: Inhibition of Escherichia coli K12 Mur A C115D at 50 uM in presence of UNAG.
Chain of UDP-N-acetylglucosamine 1-carboxyvinyltransferase (Escherichia coli K-12), P0A749 [C115D] (P0A749 whole entry C115D): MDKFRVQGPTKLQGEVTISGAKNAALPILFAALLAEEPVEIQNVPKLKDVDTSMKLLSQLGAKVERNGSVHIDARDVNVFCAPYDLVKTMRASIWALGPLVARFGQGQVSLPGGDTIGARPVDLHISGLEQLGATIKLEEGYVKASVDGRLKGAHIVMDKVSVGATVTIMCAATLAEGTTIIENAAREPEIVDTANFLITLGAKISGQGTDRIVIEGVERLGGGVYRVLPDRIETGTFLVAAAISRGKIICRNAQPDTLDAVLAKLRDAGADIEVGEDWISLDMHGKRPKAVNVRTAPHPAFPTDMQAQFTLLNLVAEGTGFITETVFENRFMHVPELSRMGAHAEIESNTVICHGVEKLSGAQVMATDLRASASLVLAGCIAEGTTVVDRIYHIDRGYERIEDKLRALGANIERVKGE
The target of experiment [3] is UDP-N-acetylglucosamine 1-carboxyvinyltransferase (Escherichia coli K-12, UniProt P0A749). As to the kind of experiment: Inhibition of Escherichia coli K12 Mur A in presence of UNAG.
Chain of UDP-N-acetylglucosamine 1-carboxyvinyltransferase (Escherichia coli K-12, UniProt P0A749) (P0A749 whole entry): as the sequence (P0A749 whole entry C115D) above, with D115C counted along it
The nature of experiment [4]: Inhibition of MurA at 5 uM. Conditions: TDE = time-dependent effect.
Experiment [5] in a line: Inhibition of MurA at 10 uM. The settings on record: TDE = time-dependent effect.

In the case of `C=C1C(=O)O[C@@H]2[C@@H]1CC[C@]1(C)CCC=C(C)[C@@H]21`, the IC50 in experiment [1] and in experiment [3] was over 50 µM throughout. For the same molecule, the outcome in experiment [2] was inactive.

`C=C1C(=O)O[C@@H]2C3O[C@]3(C)CC/C=C(\C)CC[C@@H]12` (some centres undefined): the IC50 in experiment [1] is 27.8 µM; in experiment [3], over 50 µM. In experiment [2], the result was inactive.

For `C=C1C(=O)O[C@@H]2/C=C(\C)CC/C=C(\C)CC[C@@H]12` (stereo in doubt; 7), in experiment [2], the result was inactive.

Regarding `C=C1C(=O)O[C@@H]2/C=C(\C)CC/C=C(\C)CC[C@@H]12` (stereo in doubt; 7) [COSTUNOLIDE], the IC50 in experiment [1] and in experiment [3] was over 50 µM in each case.

As to `C=C1C(=O)O[C@@H]2/C=C(\C)CC/C=C(\C)CC[C@@H]12` (stereo in doubt; 10), the result in experiment [2] was inactive.

For the molecule `C=C1C(=O)O[C@@H]2/C=C(\C)CC/C=C(\C)CC[C@@H]12` (stereo in doubt; 10) [COSTUNOLIDE], the 50% inhibitory concentration (IC50) in experiment [1] and in experiment [3] was over 50 µM in each case.

With `C=C1C(=O)O[C@@H]2/C=C(\CO)CC/C=C(\C)C[C@H](OC(=O)C(=C)[C@H](O)CO)[C@@H]12` [CNICIN], the IC50 in experiment [1] was 10.3 µM; in experiment [3], 16.7 µM. Moreover, the Activity result in experiment [4] was “tde”. The result in experiment [2] was inactive.

For `C=C(CO)C(=O)O[C@H]1CC(=C)[C@@H]2C[C@H](O)C(=C)[C@@H]2[C@H]2OC(=O)C(=C)[C@@H]21` [CYNAROPICRIN], the 50% inhibitory concentration (IC50) in experiment [1] was determined as 12.1 µM; in experiment [3], 19.5 µM. Besides, the Activity entry in experiment [4] was “tde”. Also, the result in experiment [2] was inactive.

In the case of `C=C1CC[C@H]2C(=C)CC[C@H]3C(=C)C(=O)O[C@@H]3[C@@H]12` [DEHYDROCOSTUSLACTONE], the IC50 in experiment [1] and in experiment [3] was over 50 µM each time. In addition, the outcome in experiment [2] was inactive.

Regarding `C=C1C(=O)O[C@@H]2/C=C(\C)CC/C=C(/C)C[C@@H](OC(=O)/C(=C/CO)CO)[C@@H]12` [EUPATORIOPICRIN], the IC50 in experiment [1] was determined as 19.8 µM; in experiment [3] it was 32.7 µM. The Activity entry in experiment [5] was “tde”. Moreover, the outcome in experiment [2] was inactive.

For the molecule `C[C@@H]1O[C@@H]1P(=O)(O)O` [FOSFOMYCIN], the IC50 in experiment [1] came out at 10.5 µM; in experiment [3] it was 0.118 µM. Moreover, in experiment [4], the Activity result was “tde”. Besides, in experiment [2], the outcome was inactive.

For `C=C1C(=O)O[C@@H]2C[C@@]3(C)CCC[C@H](C)C3=C[C@H]12` [HELENINE], the IC50 in experiment [1] and in experiment [3] was over 50 µM throughout. For the same molecule, in experiment [2], the result was inactive.

The term IC50 denotes the concentration needed to halve the response being measured.
